Laboratory results reported in ChEMBL document CHEMBL5143740, “Discovery of Novel Phosphoinositide-3-Kinase α Inhibitors with High Selectivity, Excellent Bioavailability, and Long-Acting Efficacy for Gastric Cancer” (J Med Chem, 2022).
pIC50: −log10 of the molar value. Activity calls are given as the source filed them. No cut-off for these calls is given here.

What was measured:
MGC-803 [1] = assay: Inhibition of PI3K signalling pathway in human MGC-803 cells assessed as reduction in pAKT level at 2 to 8 uM by Western blotting analysis; type: cell-based; settings: dose 2-8 µM
MGC-803 [2] = assay: Antitumor activity against human MGC-803 cells xenografted in BALB/c nude mouse assessed as reduction in tumor volume at 30 mg/kg, po administered every day for 3 weeks in presence of taxol by vernier caliper method; type: functional, organism-based
MGC-803 [3] = assay: Induction of apoptosis in human MGC-803 cells assessed as late apoptotic cells at 2 uM incubated for 36 hrs by annexin V-FITC based flow cytometry analysis (reference value: 2.61 %); type: functional
MGC-803 [4] = assay: Induction of apoptosis in human MGC-803 cells assessed as early apoptotic cells at 2 uM incubated for 36 hrs by annexin V-FITC based flow cytometry analysis (reference value: 2.49 %); type: functional
MGC-803 [5] = assay: Induction of apoptosis in human MGC-803 cells assessed as early apoptotic cells at 4 uM incubated for 36 hrs by annexin V-FITC based flow cytometry analysis (reference value: 2.49 %); type: functional
[6] = Half life in Sprague-Dawley rat at 1 mg/kg, iv measured after 24 hrs; type: ADME, organism-based; settings: in vivo
K562 = assay: Antiproliferative activity against human K562 cells assessed as inhibition of cell growth incubated for 72 hrs by CCK8 assay; type: functional, cell-based; settings: K562, 72 h
[7] = target: T1, Phosphatidylinositol 4,5-bisphosphate 3-kinase catalytic subunit delta isoform (Homo sapiens, UniProt O00329); assay: Inhibition of PI3Kdelta (unknown origin) in presence of [33P]-ATP incubated for 2 hrs by hotspot kinase assay
T1 sequence (O00329 whole entry): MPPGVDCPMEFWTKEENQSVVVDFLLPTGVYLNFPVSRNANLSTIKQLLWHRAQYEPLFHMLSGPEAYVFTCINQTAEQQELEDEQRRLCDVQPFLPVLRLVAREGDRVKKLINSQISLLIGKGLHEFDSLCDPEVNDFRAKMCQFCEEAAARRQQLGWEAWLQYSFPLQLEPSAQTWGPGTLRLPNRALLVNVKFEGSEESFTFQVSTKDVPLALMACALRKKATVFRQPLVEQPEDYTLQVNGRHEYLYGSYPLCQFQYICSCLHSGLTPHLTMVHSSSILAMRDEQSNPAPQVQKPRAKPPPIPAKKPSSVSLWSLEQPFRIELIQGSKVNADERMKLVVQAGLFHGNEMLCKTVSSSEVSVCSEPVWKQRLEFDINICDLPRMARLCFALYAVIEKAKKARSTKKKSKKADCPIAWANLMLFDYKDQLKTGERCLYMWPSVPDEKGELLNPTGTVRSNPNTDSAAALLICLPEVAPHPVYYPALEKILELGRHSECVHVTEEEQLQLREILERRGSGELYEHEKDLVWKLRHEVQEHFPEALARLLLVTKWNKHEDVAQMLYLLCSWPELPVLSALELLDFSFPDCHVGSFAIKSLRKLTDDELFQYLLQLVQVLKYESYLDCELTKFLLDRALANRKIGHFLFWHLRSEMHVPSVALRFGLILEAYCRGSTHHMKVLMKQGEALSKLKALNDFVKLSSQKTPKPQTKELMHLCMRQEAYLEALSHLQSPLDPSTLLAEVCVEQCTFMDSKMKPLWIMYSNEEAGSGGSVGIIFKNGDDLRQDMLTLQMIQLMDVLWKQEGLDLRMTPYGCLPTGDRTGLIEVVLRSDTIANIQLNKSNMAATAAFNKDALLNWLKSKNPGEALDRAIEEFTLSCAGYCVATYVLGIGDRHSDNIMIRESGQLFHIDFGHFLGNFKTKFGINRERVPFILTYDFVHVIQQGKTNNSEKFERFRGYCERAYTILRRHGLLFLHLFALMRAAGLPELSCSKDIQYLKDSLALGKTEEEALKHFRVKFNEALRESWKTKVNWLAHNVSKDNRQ

[8] = AUC (0 to infinitive) in Sprague-Dawley rat at 1 mg/kg, iv measured after 24 hrs; type: ADME, organism-based; set-up: time 24 hrs, dose 1 mg/kg, route iv; settings: in vivo
[9] = target: Phosphatidylinositol 4,5-bisphosphate 3-kinase catalytic subunit gamma isoform (Homo sapiens, UniProt P48736)
PC-3 = assay: Antiproliferative activity against human PC-3 cells assessed as inhibition of cell growth incubated for 72 hrs by CCK8 assay; type: functional, cell-based; settings: PC-3, 72 h
SK-OV-3 = assay: Antiproliferative activity against human SK-OV-3 cells assessed as inhibition of cell growth incubated for 72 hrs by CCK8 assay; type: functional, cell-based; settings: SK-OV-3, 72 h
[10] = Toxicity in BALB/c mouse xenografted with human MG C-803cells assessed as effect on body weight at 10 mg/kg, IP administered every day for 3 week; type: organism-based; settings: in vivo, 504 h, time 3 weeks
[11] = AUC (0 to infinitive) in Sprague-Dawley rat at 10 mg/kg, po measured after 24 hrs; type: ADME, organism-based; set-up: dose 10 mg/kg, time 24 hrs, route po; settings: in vivo
MGC-803 [12] = assay: Inhibition of cell migration in human MGC-803 cells at 2 to 8 uM incubated for 24 hrs by crystal violet staining based transwell migration assay; type: functional; settings: dose 2-8 µM
[13] = Cmax in Sprague-Dawley rat at 10 mg/kg, po measured after 24 hrs; type: ADME, organism-based; set-up: time 24 hrs, dose 10 mg/kg, route po; settings: in vivo

Sequence of Phosphatidylinositol 4,5-bisphosphate 3-kinase catalytic subunit gamma isoform (P48736 whole entry, canonical isoform): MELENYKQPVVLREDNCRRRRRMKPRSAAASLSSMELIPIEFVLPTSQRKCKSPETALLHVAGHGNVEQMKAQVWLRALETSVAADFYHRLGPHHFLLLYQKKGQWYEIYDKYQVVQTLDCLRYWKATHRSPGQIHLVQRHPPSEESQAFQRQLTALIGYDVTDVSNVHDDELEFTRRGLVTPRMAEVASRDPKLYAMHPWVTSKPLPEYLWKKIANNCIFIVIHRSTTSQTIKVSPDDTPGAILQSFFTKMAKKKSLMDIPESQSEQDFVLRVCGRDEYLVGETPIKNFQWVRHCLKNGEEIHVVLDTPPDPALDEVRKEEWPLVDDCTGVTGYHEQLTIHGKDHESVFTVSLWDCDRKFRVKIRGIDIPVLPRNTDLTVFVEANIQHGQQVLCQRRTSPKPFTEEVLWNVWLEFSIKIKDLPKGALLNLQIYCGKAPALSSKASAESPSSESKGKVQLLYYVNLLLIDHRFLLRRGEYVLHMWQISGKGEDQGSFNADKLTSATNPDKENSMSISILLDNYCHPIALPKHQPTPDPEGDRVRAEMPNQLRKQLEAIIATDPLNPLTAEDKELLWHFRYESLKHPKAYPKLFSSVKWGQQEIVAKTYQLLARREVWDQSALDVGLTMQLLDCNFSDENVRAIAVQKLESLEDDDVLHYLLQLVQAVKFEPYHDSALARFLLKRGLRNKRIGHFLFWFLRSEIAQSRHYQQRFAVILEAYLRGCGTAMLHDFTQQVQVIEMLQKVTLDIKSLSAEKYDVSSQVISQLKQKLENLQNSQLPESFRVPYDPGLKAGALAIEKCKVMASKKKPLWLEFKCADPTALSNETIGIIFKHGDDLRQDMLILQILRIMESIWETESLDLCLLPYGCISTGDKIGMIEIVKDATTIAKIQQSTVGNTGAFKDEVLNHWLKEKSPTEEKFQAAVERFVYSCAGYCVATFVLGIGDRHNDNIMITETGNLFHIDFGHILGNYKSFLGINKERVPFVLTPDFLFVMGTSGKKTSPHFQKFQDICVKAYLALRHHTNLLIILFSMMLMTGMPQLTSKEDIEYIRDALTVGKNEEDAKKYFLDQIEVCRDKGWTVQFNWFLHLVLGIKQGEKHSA

half-life [6]: 6.29 h
pIC50 (K562): 6.37
pIC50 [7]: 6.82
AUC(0-inf) [8]: 2920 ng·h/mL
pIC50 [9]: 6.89
pIC50 (PC-3): 6.37
pIC50 (SK-OV-3): 6.37
AUC(0-inf) [11]: 38100 ng·h/mL
Cmax [13]: 2260 ng/mL
Compound: Nc1nc2cc(-c3nc(N4CCOCC4)nc(N4CCOCC4)n3)ccc2o1
inhibition (MGC-803 [1]): Active
Activity (MGC-803 [2]): Active
Activity (MGC-803 [3]): 4.55%
Activity (MGC-803 [4]): 7.52%
Activity (MGC-803 [5]): 31.31%
Activity [10]: Non-Toxic
inhibition (MGC-803 [12]): Active
